pEC50, pIC50: −log10 of the molar value.
Legend:
[1] = test system: HBV-specific T cells; assay: HBV-specific T cell reinvigoration in vitro assay using PBMCs from chronic hepatitis B patients; type: cell-based, human; settings: relative to HBV-specific peptide treatment alone, 24 hours
Protocol: In one aspect, this assay measures the ability of a PD-L1 inhibitor to increase HBV specific T cell activity in an infected subject, as measured by the increase in interferon-gamma expression by those T cells.
The ability of PD-L1 inhibitor compounds to reinvigorate HBV-specific T cell activity was assessed as described. PBMCs from nine chronic hepatitis B patients were obtained by Ficoll separation of fresh whole blood and frozen in liquid nitrogen as described previously (Park et al., Nature Communications, 2021; 12:1222). Frozen PBMCs were thawed and plated into 12-well plates at 2×10^6 cells/ml. PBMCs were rested overnight at 37° C. before they were stimulated with HBV-specific peptide pools and allowed to proliferate for 5 days. Expanded PBMCs were then restimulated with HBV-specific peptide pools alone or stimulated with HBV-specific peptide pools and incubated with compounds 89, 90, and 139, a negative control, or anti-PD-L1 antibody as reference. Supernatant was obtained after 24 hours and assayed for IFN-γ using the Luminex platform. Fold change increase in IFN-γ expression mediated by compound treatment relative to HBV-specific peptide treatment alone was determined (Table 3).

[2] = test system: MC38 tumors expressing human PD-L1; assay: In vivo anti-tumor efficacy in humanized PD-L1 and PD-1 expressing MC38 tumor mouse model; settings: oral gavage once daily
Protocol: In one aspect, this assay measures the ability of a PD-L1 inhibitor to reduce the size of MC38 (a murine colon adenocarcinoma cell line) tumors in mice, as an indication of the PD-L1 inhibitor's ability to help treat, ameliorate, and/or prevent cancer in the subject.
In vivo anti-tumor efficacy of compounds was evaluated in mice expressing humanized PD-1 and PD-L1, in which the extracellular domains of murine PD-1 and PD-L1 were genetically replaced with the human extracellular domain counterparts (Huang et al., Scientific Reports, 2017; 7:42687). Humanized PD-1/PD-L1 (hPD-1/hPD-L1) mice were subcutaneously implanted with the colorectal cancer cell line MC38 expressing human PD-L1 and compound treatment initiated when tumor volumes reached approximately 100 mm^3. Compounds were administered via oral gavage once daily at: 30 mg/kg between study days 1 and 7; or 10 mg/kg for 28 days. The anti-PD-L1 monoclonal antibody atezolizumab was included as a positive reference control and administered via intraperitoneal injection at 0.3 mg/kg thrice weekly between study days 1 and 15. Tumor lengths and widths were measured by digital caliper and tumor volumes were calculated by the formula: […].

[3] = molecular target: human PD-L1 (Homo sapiens (Human), UniProt Q9NZQ7); assay: T cell activation luciferase reporter cell culture system (T Cell Activation Assay); type: cell-based; settings: luciferase reporter assay; PD-L1 aAPC/CHO-K1 cells with PD-1 effector Jurkat T cells
Chain of human PD-L1 (Q9NZQ7 19-290): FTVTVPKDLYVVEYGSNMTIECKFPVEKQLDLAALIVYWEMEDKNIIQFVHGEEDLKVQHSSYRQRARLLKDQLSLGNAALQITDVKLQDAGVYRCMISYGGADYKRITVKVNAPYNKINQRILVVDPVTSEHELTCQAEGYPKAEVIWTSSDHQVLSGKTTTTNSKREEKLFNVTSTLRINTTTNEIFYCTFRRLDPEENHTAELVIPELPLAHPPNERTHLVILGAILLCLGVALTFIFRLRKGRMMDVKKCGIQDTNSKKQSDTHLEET

[4] = molecular target: PD-L1 His protein / PD-1 Fc protein (Homo sapiens (Human), UniProt Q9NZQ7); assay: HTRF Assay (PD-1/PD-L1 interaction); type: binding; settings: PD-L1 His 6 nM, PD-1 Fc 6 nM
Chain of PD-L1 His protein / PD-1 Fc protein (Q9NZQ7 19-238): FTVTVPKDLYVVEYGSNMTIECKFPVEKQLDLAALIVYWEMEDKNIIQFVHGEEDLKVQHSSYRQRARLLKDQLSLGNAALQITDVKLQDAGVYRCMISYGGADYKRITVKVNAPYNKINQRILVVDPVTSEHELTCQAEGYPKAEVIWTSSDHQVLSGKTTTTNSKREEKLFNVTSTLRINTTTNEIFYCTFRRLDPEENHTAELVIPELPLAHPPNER

## COc1cc(-c2nccc(-c3cccc(-c4ccc(CN5CC6(CNC(=O)C6)C5)c(OC)n4)c3Cl)c2Cl)ccc1CN1CC2(CNC(=O)C2)C1 [Compound 89, 2-(4-(3-chloro-4-(2-chloro-3-(6-methoxy-5-((7-oxo-2,6-diazaspiro[3.4]octan-2-yl)methyl)pyridin-2-yl)phenyl)pyridin-2-yl)-2-methoxybenzyl)-2,6-diazaspiro[3.4]octan-7-one]
[1]; Chronic Hepatitis B Donor 1
  Fold Change in IFN-γ Expression of HBV-specific T Cells: 2.0 Fold Change
[1]; Chronic Hepatitis B Donor 2
  Fold Change in IFN-γ Expression of HBV-specific T Cells: 2.0 Fold Change
[1]; Chronic Hepatitis B Donor 3
  Fold Change in IFN-γ Expression of HBV-specific T Cells: 1.5 Fold Change
[1]; Chronic Hepatitis B Donor 4
  Fold Change in IFN-γ Expression of HBV-specific T Cells: 3.7 Fold Change
[1]; Chronic Hepatitis B Donor 5
  Fold Change in IFN-γ Expression of HBV-specific T Cells: 1.5 Fold Change
[1]; Chronic Hepatitis B Donor 6
  Fold Change in IFN-γ Expression of HBV-specific T Cells: 2.7 Fold Change
[1]; Chronic Hepatitis B Donor 7
  Fold Change in IFN-γ Expression of HBV-specific T Cells: 1.3 Fold Change
[1]; Chronic Hepatitis B Donor 8
  Fold Change in IFN-γ Expression of HBV-specific T Cells: 2.2 Fold Change
[1]; Chronic Hepatitis B Donor 9
  Fold Change in IFN-γ Expression of HBV-specific T Cells: 1.5 Fold Change
[1]; Mean ± SD of nine chronic hepatitis B donors
  Fold Change in IFN-γ Expression of HBV-specific T Cells, Mean ± SD: 2.0 ± 0.8 Fold Change
[2]; 10 mg/kg × 28 days, study day 2
  Tumor Volume (group mean): 122 mm^3
[2]; 10 mg/kg × 28 days, study day 5
  Tumor Volume (group mean): 170 mm^3
[2]; 10 mg/kg × 28 days, study day 9
  Tumor Volume (group mean): 227 mm^3
[2]; 10 mg/kg × 28 days, study day 12
  Tumor Volume (group mean): 223 mm^3
[2]; 10 mg/kg × 28 days, study day 16
  Tumor Volume (group mean): 222 mm^3
[2]; 10 mg/kg × 28 days, study day 19
  Tumor Volume (group mean): 252 mm^3
[2]; 10 mg/kg × 28 days, study day 23
  Tumor Volume (group mean): 279 mm^3
[2]; 10 mg/kg × 28 days, study day 26
  Tumor Volume (group mean): 328 mm^3
[2]; 10 mg/kg × 28 days, study day 28
  Tumor Volume (group mean): 346 mm^3
[2]; 10 mg/kg × 28 days, study day −1
  Tumor Volume (group mean): 105 mm^3
[2]; 30 mg/kg × 7 days, study day 2
  Tumor Volume (group mean): 116 mm^3
[2]; 30 mg/kg × 7 days, study day 5
  Tumor Volume (group mean): 164 mm^3
[2]; 30 mg/kg × 7 days, study day 9
  Tumor Volume (group mean): 176 mm^3
[2]; 30 mg/kg × 7 days, study day 12
  Tumor Volume (group mean): 212 mm^3
[2]; 30 mg/kg × 7 days, study day 16
  Tumor Volume (group mean): 243 mm^3
[2]; 30 mg/kg × 7 days, study day 19
  Tumor Volume (group mean): 310 mm^3
[2]; 30 mg/kg × 7 days, study day 23
  Tumor Volume (group mean): 418 mm^3
[2]; 30 mg/kg × 7 days, study day 26
  Tumor Volume (group mean): 564 mm^3
[2]; 30 mg/kg × 7 days, study day 28
  Tumor Volume (group mean): 607 mm^3
[2]; 30 mg/kg × 7 days, study day −1
  Tumor Volume (group mean): 105 mm^3
[3]
  pEC50: 7.78
[4]
  pIC50: 9.30
